According to patent US9278958B2, “Anti-cancer compounds” (KATHOLIEKE UNIVERSITEIT LEUVEN, priority 2012, dated 2016):
Like-named read-outs stand apart in the source and are kept apart here.

What was measured:
[1] = test system: LNCaP (UZ) prostate cancer cells; test: Cytostatic assay, LNCaP (UZ); type: cell-based; settings: Homo sapiens, Table 4
Experimental: (§1) To each well of a 96-well microtiter plate were added 5-7.5×10^4 cells and a given amount of the test compound. The cells were allowed to proliferate for 48 h to 96 h (depending on the nature of the cell line) at 37° C. in a humidified CO2-controlled atmosphere. At the end of the incubation period, the cells were counted in a Coulter Counter (Coulter Electronics Ltd, Harpenden Herts, United Kingdom).

[2] = test system: PLC/PRF/5 hepatoma cells; test: Cytostatic assay, PLC/PRF/5; type: cell-based; settings: Homo sapiens, Table 4
Experimental: as §1

[3] = test system: 293T embryonic kidney cells; test: Cytostatic assay, 293T; type: cell-based; settings: Homo sapiens, HEK-293T; Table 3
Experimental: as §1

[4] = test system: C8166 cells; test: Cytostatic assay, C8166; type: cell-based; settings: Homo sapiens, Table 2
Experimental: as §1

[5] = test system: Sup T1 cells; test: Cytostatic assay, Sup T1; type: cell-based; settings: Homo sapiens, Table 2, read-out: Cytostatic activity (μM) Sup T 1
Experimental: as §1

[6] = test system: MT-4 cells; test: Cytostatic assay, MT-4; type: cell-based; settings: Homo sapiens, MT4; Table 2
Experimental: as §1

[7] = test system: OST TK- osteosarcoma cells; test: Cytostatic assay, OST TK-; type: cell-based; settings: Homo sapiens; Table 3
Experimental: as §1

[8] = test system: MT-2 cells; test: Cytostatic assay, MT-2; type: cell-based; settings: Homo sapiens, MT2; Table 2
Experimental: as §1

[9] = test system: Caki-2 kidney carcinoma cells; test: Cytostatic assay, Caki-2; type: cell-based; settings: Homo sapiens, Table 3
Experimental: as §1

[10] = test system: HUT-78 cells; test: Cytostatic assay, HUT-78; type: cell-based; settings: Homo sapiens, HuT78; Table 2
Experimental: as §1

[11] = test system: HT29 colorectal carcinoma cells; test: Cytostatic assay, HT29; type: cell-based; settings: Homo sapiens, HT-29; Table 3
Experimental: as §1

[12] = test system: U937, human monocytic cells; test: Cytostatic assay, U937; type: cell-based; settings: U-937, Table 2
Experimental: as §1

[13] = test system: BAEC aortic endothelial cells; test: Cytostatic assay, BAEC; type: cell-based, bovine; settings: Bos taurus, Table 3
Experimental: as §1

[14] = test system: L1210 cells; test: Cytostatic assay, L1210; type: cell-based; settings: Mus musculus, Table 2
Experimental: as §1

[15] = test system: HeLa cervix carcinoma cells; test: Cytostatic assay, HeLa; type: cell-based, human; settings: Homo sapiens; Table 3; read-out: Cytostatic activity (μM) Hela
Experimental: as §1

[16] = test system: Caki-1 kidney carcinoma cells; test: Cytostatic assay, Caki-1; type: cell-based; settings: Homo sapiens, Table 3
Experimental: as §1

[17] = test system: HepG2C3A hepatoma cells; test: Cytostatic assay, HepG2C3A; type: cell-based; settings: Homo sapiens, HepG2/C3A; Table 4
Experimental: as §1

[18] = test system: HEL embryonic lung fibroblast cells; test: Cytostatic assay, HEL; type: cell-based; settings: Homo sapiens, Table 3
Experimental: as §1

[19] = test system: Huh-7 hepatoma cells; test: Cytostatic assay, Huh-7; type: cell-based; settings: Homo sapiens, Table 4
Experimental: as §1

[20] = test system: HL60, human leukemia cells; test: Cytostatic assay, HL-60; type: cell-based; settings: Table 2
Experimental: as §1

[21] = test system: MCF-7 mammary carcinoma cells; test: Cytostatic assay, MCF-7; type: cell-based; settings: Homo sapiens, MCF7; Table 3
Experimental: as §1

[22] = test system: Raji, human B-lymphoma cells; test: Cytostatic assay, Raji; type: cell-based; settings: Table 2
Experimental: as §1

[23] = test system: DU145 (UZ) prostate cancer cells; test: Cytostatic assay, DU145 (UZ); type: cell-based; settings: Homo sapiens, DU-145; Table 4
Experimental: as §1

[24] = test system: FM3A mammary carcinoma cells; test: Cytostatic assay, FM3A; type: cell-based, murine; settings: Mus musculus, Table 3
Experimental: as §1

[25] = test system: 22Rv1 (UZ) prostate cancer cells; test: Cytostatic assay, 22Rv1 (UZ); type: cell-based; settings: Homo sapiens, Table 4
Experimental: as §1

[26] = test system: U87 glioma cells; test: Cytostatic assay, U87; type: cell-based; settings: Homo sapiens, U-87 MG; Table 3
Experimental: as §1

[27] = test system: CEM cells; test: Cytostatic assay, CEM; type: cell-based; settings: Homo sapiens, CCRF-CEM
Experimental: as §1

[28] = test system: PC3 (rega) prostate cancer cells; test: Cytostatic assay, PC3 (rega); type: cell-based; settings: Table 4
Experimental: as §1

[29] = test system: THP-1, human monocytic cells; test: Cytostatic assay, THP-1; type: cell-based; settings: Table 2
Experimental: as §1

[30] = test system: PC-3 (UZ) prostate cancer cells; test: Cytostatic assay, PC-3 (UZ); type: cell-based; settings: Table 4
Experimental: as §1

[31] = test system: PNT1A (UZ) prostate cells; test: Cytostatic assay, PNT1A (UZ); type: cell-based; settings: Homo sapiens, Table 4
Experimental: as §1

[32] = test system: BPH-1 (UZ); test: Cytostatic assay, BPH-1 (UZ); type: cell-based; settings: Homo sapiens, Table 4
Experimental: as §1

[33] = test system: Molt4/C8 cells; test: Cytostatic assay, Molt4/C8; type: cell-based; settings: Table 2
Experimental: as §1

[34] = Table 1a, read-out: IC50 μM (CEM)
[35] = Table 2, read-out: Cytostatic activity (μM) CEM

Row | Compound | IC50 [1] [µM] | IC50 [2] [µM] | IC50 [4] [µM] | IC50 [5] [µM] | IC50 [7] [µM] | IC50 [8] [µM] | IC50 [9] [µM] | IC50 [10] [µM] | IC50 [11] [µM] | IC50 [12] [µM] | IC50 [13] [µM] | IC50 [15] [µM] | IC50 [16] [µM] | IC50 [17] [µM] | IC50 [19] [µM] | IC50 [20] [µM] | IC50 [21] [µM] | IC50 [3] [µM] | IC50 [6] [µM] | IC50 [18] [µM] | also measured
1 | COc1ccc(CCc2cc(C#N)c(N)s2)cc1 [TR586, 2-Amino-5-[2-(4-methoxy-phenyl)-ethyl]-thiophene-3-carbonitrile] | 0.83 ± 0.35 | 37 ± 0.71 | 57 ± 56 | 79 ± 42 | 27 ± 18 | 6.8 ± 3.7 | 28 ± 27 | 17 ± 8.1 | 34 ± 6.4 | 17 ± 2.8 | 38 ± 2.1 | 21 ± 9.9 | 1.9 ± 0.42 | 46 ± 13 | > 100 | 1.9 ± 0.42 | 114 ± 62 | 28 ± 3.5 | 74 ± 37 | > 100 | IC50 [14]: 14 ± 4 µM; IC50 [22]: 36 ± 21 µM; IC50 [23]: 8.3 ± 2.5 µM; IC50 [24]: 34 ± 23 µM; IC50 [25]: 17 ± 8.1 µM; IC50 [26]: > 100 µM; IC50 [27, 34]: 16 µM; IC50 [27, 35]: 16 ± 17 µM; IC50 [28]: 1.8 ± 2 µM; IC50 [29]: 4.3 ± 0.6 µM; IC50 [30]: 4.2 ± 0.14 µM; IC50 [31]: 38 ± 14 µM; IC50 [32]: 59 ± 18 µM; IC50 [33]: 1.4 ± 0.8 µM
2 | CCOC(=O)c1c(N)sc(CCc2ccc(OC)cc2)c1C(=O)OCC [TR547, 2-Amino-5-[2-(4-methoxy-phenyl)-ethyl]-thiophene-3,4-dicarboxylic acid diethyl ester] | 19 ± 10 | 75 ± 35 | 122 ± 12 | 73 ± 13 | 71 ± 7.8 | 31 ± 29 | 57 ± 24 | 120 ± 44 | 46 ± 3.5 | 80 ± 3.5 | 82 ± 26 | 41 ± 7.1 | 87 ± 21 | 48 ± 16 | 51 ± 14 | 46 ± 25 | 87 ± 21 | 58 ± 2.8 | 38 ± 3.5 | 44 ± 3.5 | IC50 [14]: 105 ± 48 µM; IC50 [22]: 58 ± 13 µM; IC50 [23]: 89 ± 16 µM; IC50 [24]: 86 ± 5.6 µM; IC50 [25]: 31 ± 4.2 µM; IC50 [26]: 81 ± 27 µM; IC50 [27, 34]: 72 µM; IC50 [27, 35]: 72 ± 6.4 µM; IC50 [28]: 38 ± 12 µM; IC50 [29]: 26 ± 2.8 µM; IC50 [30]: 31 ± 5.7 µM; IC50 [31]: 56 µM; IC50 [32]: 65 ± 9.2 µM; IC50 [33]: 54 ± 6 µM
3 | COC(=O)c1c(N)sc(CCc2cc(OC)ccc2OC)c1C [TR599, 2-Amino-5-[2-(2,5-dimethoxy-phenyl)-ethyl]-4-methyl-thiophene-3-carboxylic acid methyl ester] | 8.7 ± 4.7 | 36 ± 2.8 | 110 ± 31 | 32 ± 15 | 34 ± 23 | 37 ± 29 | 52 ± 17 | 21 ± 1.4 | 47 ± 2.1 | 68 ± 0.7 | 52 ± 46 | 38 ± 11 | 57 ± 38 | 34 ± 22 | 52 ± 7.8 | 18 ± 4.9 | 11 ± 8.5 | 52 ± 2.1 | 58 ± 21 | 46 ± 3.5 | IC50 [22]: 49 ± 13 µM; IC50 [23]: 35 ± 16 µM; IC50 [24]: 48 ± 3.5 µM; IC50 [25]: 28 ± 19 µM; IC50 [26]: 41 ± 4.9 µM; IC50 [27, 34]: 44 µM; IC50 [27, 35]: 44 µM; IC50 [28]: 24 ± 12 µM; IC50 [29]: 9 ± 0.6 µM; IC50 [30]: 25 ± 5.7 µM; IC50 [31]: 46 ± 2.1 µM; IC50 [32]: 43 ± 3.5 µM; IC50 [33]: 47 ± 16 µM

Further lines, with some results ahead:

Row | IC50 [1] [µM] | IC50 [2] [µM] | IC50 [4] [µM] | IC50 [5] [µM] | IC50 [7] [µM] | IC50 [8] [µM] | IC50 [9] [µM] | IC50 [10] [µM] | IC50 [11] [µM] | IC50 [12] [µM] | IC50 [13] [µM] | IC50 [15] [µM] | IC50 [16] [µM] | IC50 [17] [µM] | IC50 [19] [µM] | IC50 [20] [µM] | IC50 [21] [µM] | Compound | IC50 [3] [µM] | IC50 [6] [µM] | IC50 [18] [µM] | also measured
4 | 1.1 ± 0.84 | 42 ± 2.1 | 179 ± 18 | 55 ± 30 | 25 ± 2.1 | 12 ± 1.4 | 9 ± 1.4 | 26 ± 17 | 42 ± 3.5 | 63 ± 7.1 | 47 ± 3.5 | 63 ± 19 | 4.4 ± 1.9 | 28 ± 8.5 | 42 ± 7.8 | 11 ± 1.4 | 119 ± 52 | COC(=O)c1cc(-c2ccc(OC)cc2)sc1N [TR572, 2-Amino-5-(4-methoxy-phenyl)-thiophene-3-carboxylic acid methyl ester] | > 100 | 40 ± 12 | 34 ± 20 | IC50 [14]: 60 ± 12 µM; IC50 [22]: 61 ± 18 µM; IC50 [23]: 18 ± 9.2 µM; IC50 [24]: 97 ± 32 µM; IC50 [25]: 69 ± 44 µM; IC50 [26]: 71 ± 3.5 µM; IC50 [27, 34]: 74 µM; IC50 [27, 35]: 74 ± 3.5 µM; IC50 [28]: 5.5 ± 4 µM; IC50 [29]: 21 ± 0.7 µM; IC50 [30]: 4.3 ± 1.7 µM; IC50 [31]: 53 ± 2.1 µM; IC50 [32]: 58 ± 6.4 µM; IC50 [33]: 44 ± 9 µM
5 | 21 ± 8.5 | 26 ± 0.71 | 102 ± 1.4 | 38 ± 25 | 32 ± 18 | 14 ± 2.8 | 24 ± 9.2 | 109 ± 82 | 42 | 85 ± 2.8 | 26 ± 7.1 | 39 ± 9.2 | 8.8 ± 3.1 | 22 ± 18 | 49 ± 19 | 21 | 44 ± 28 | COC(=O)c1cc(-c2cc(OC)ccc2OC)sc1N [TR601, 2-Amino-5-(2,5-dimethoxy-phenyl)-thiophene-3-carboxylic acid methyl ester] | 43 ± 16 | 50 ± 25 | 17 ± 5.7 | IC50 [22]: 45 ± 11 µM; IC50 [23]: 37 ± 2.1 µM; IC50 [24]: 59 ± 11 µM; IC50 [25]: 11 ± 4.8 µM; IC50 [26]: 25 µM; IC50 [27, 34]: 42 µM; IC50 [27, 35]: 42 ± 1.4 µM; IC50 [28]: 23 ± 14 µM; IC50 [29]: 25 ± 5.7 µM; IC50 [30]: 25 µM; IC50 [31]: 38 ± 5.7 µM; IC50 [32]: 31 µM; IC50 [33]: 28 ± 6 µM
